Measurements published in US20240327382A1 (ALMAC DISCOVERY LIMITED, priority 2021, published 2024).

Legend:
USP19 [1] = target: T1, USP19 (Homo sapiens, UniProt O94966); experiment: Cellular target engagement using HTRF assay (USP19-Flag transfected cells); format: cell-based; conditions: HEK293T cells; read-out: HTRF TE IC50
T1 construct: expressed in transfected cells; host or cells: HEK293T
T1 sequence (O94966 1-1318): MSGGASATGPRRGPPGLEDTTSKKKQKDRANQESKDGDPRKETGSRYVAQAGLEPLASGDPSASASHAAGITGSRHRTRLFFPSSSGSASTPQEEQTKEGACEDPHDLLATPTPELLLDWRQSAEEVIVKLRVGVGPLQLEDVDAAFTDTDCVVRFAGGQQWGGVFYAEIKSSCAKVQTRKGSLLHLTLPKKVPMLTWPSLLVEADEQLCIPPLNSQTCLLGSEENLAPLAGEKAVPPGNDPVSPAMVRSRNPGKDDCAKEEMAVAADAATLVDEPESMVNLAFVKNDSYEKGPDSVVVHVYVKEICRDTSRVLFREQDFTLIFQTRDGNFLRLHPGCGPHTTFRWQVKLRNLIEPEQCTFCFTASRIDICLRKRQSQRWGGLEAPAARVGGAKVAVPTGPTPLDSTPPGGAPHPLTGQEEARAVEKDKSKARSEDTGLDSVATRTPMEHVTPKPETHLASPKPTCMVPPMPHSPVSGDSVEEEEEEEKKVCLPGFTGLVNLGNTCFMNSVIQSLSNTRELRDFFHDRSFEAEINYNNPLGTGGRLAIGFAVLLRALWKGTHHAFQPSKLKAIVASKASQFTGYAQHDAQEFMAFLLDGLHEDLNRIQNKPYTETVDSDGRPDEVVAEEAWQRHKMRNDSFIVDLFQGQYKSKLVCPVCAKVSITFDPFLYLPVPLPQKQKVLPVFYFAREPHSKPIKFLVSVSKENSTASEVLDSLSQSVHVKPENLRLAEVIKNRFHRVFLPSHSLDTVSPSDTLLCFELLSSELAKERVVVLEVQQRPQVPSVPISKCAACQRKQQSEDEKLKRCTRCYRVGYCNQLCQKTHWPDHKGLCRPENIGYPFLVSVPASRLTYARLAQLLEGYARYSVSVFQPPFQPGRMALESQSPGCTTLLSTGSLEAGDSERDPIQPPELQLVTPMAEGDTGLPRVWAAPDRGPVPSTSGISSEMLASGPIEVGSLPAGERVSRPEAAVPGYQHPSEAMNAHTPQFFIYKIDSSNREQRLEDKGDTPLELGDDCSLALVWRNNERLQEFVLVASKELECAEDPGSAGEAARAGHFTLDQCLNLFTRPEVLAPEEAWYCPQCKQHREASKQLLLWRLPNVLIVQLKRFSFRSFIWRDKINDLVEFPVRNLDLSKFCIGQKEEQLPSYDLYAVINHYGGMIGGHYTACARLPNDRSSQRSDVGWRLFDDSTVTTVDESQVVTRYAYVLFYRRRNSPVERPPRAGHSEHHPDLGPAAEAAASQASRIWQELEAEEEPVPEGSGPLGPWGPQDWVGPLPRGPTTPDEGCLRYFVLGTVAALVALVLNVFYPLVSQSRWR
Procedure: USP19 cellular target engagement was determined in a homogenous time resolved fluorescence (HTRF) assay using HA-tagged ubiquitin vinyl pentynyl sulfone (VPS) probe (UbiQ-193, UbiQ Bio) and a USP19-Flag overexpression construct. Inhibitors were stored as 10 mM DMSO stocks in an inert environment (low humidity, dark, low oxygen, rt) using the StoragePod® system (Roylan Developments). USP19-Flag transfected cells were incubated with serially diluted compound in an 11 point dose response curve (from 50 μM to 0.01 nM) for 2 h and then washed in PBS and lysed. Unless otherwise stated, all HTRF reagents were purchased from CisBio. HTRF assays using cell lysates were completed in 384 well plates (Greiner) in a 20 μL total volume. Cell lysates were incubated with HA-tagged ubiquitin VPS probe for 40 min in PPI detection buffer prior to addition of anti-HA and anti-FLAG HTRF detection reagents. HTRF was measured every 1 h for 18 h using a Pherastar FSX plate reader (excitation of 337 nm, emission of 620/665 nm). Data was normalised to DMSO (no compound controls) and fitted using IC50 values derived using Prism (GraphPad) using nonlinear regression curve fitting.

[2] = Caco-2 permeability assay; format: in vitro ADME; conditions: human, apical to basolateral (A:B), read-out: caco-2 Papp AB
Procedure: Caco-2 cells are commonly used as an in vitro model for the prediction of human intestinal absorption of test compounds. When cultured, Caco-2 cells (derived from a human colorectal carcinoma) spontaneously differentiate into monolayers of polarised enterocytes. The cells are seeded on multiwell-insert plates and form a confluent monolayer over 20 d before the assay. On day 20, compound was added to the apical side of the membrane and the flux of the compound across the monolayer was monitored over 2 h. All data was generated at Cyptotex.

[3] = Thermodynamic solubility assay; format: physicochemical; conditions: aqueous buffer, thermodynamic from solid, PBS buffer pH 7.4, read-out: TSol
Procedure: Test compound (˜0.5 mg, accurately weighed) was suspended in PBS buffer pH 7.4 (Dulbecco A) to a concentration of 1 mg/mL in a high recovery glass vial in duplicate. The suspensions were shaken at 300 rpm at rt for 64 h. About 250 μL of suspension were then transferred to a MultiScreen® Solubility filter plate (Millipore) in duplicate. Concentrations of the filtrates were then quantified against a 5-point calibration curve in a mixture of acetonitrile/PBS buffer (top concentration […]). After filtration and matrix match, the calibration and assay plates were analysed on a Bioteck Synergy 4 plate reader (240-400 nm). Final concentration of the test compound in the filtrate was calculated using the slope of the calibration curve.

Full-length USP19 = target: T2, Full-length USP19 (Homo sapiens, UniProt O94966); experiment: USP19 fluorescence polarisation (FP) assay, Ubiquitin-Lys-TAMRA substrate; format: biochemical; conditions: fluorescence polarisation assay, qualitative
T2 construct: Full-length USP19 was purchased from Boston Biochem (E-576); purchased Boston Biochem E-576
T2 sequence (O94966 1-1318): T1 sequence (O94966 1-1318)
How it was run: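 Full-length human USP19 (added at 2.5 nM) was preincubated 30 min at RT with inhibitor (serial dilutions 200 μM to 2 μM) in 50 mM HEPES pH 7.4, 150 mM NaCl, 5 mM DTT, 0.05% BSA, 0.05% CHAPS. Ubiquitin-Lys-TAMRA isopeptide substrate (added at 500 nM) started the reaction, and FP (Ex 530/Em 575 nm) was read every 15 min over 90 min. IC50 came from non-linear regression of signal normalised to no-compound control, averaged over at least two duplicate experiments.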

USP19 [4] = experiment: Cellular target engagement using western blotting (Ub-PA / Ub-VME probe); format: cell-based; conditions: breast cancer, neuroblastoma and mouse skeletal muscle cell lines
Procedure: Cells from a breast cancer cell line, a neuroblastoma cell line and a mouse skeletal muscle cell line were treated with a USP19 inhibitor compound (ADC-141) for 2 hrs, lysed (lysis buffer: 50 mM Tris pH 7.4; 150 mM NaCl; 5 mM MgCl2; 0.5 mM EDTA; 0.5% NP40; 10% Glycerol; 2 mM DTT) and Ubiquitin-propargylamine (Ub-PA; UbiQ) or Ubiquitin-vinyl methyl ester (Ub-VME; Almac Sciences Scotland Limited) was then added. Samples were analysed by western blotting probing for USP19 (EC50 determined by densitometry).

male C57bl/6 mice = experiment: Sciatic nerve denervation muscle wasting model; format: in vivo, mouse; conditions: 75 mg/kg IP twice daily
Procedure: To induce muscle wasting, a 1 cm segment of the sciatic nerve in the thigh was removed from mice (male C57bl/6 mice at 8-10 weeks of age; n=10 per group) under isoflurane anaesthesia and analgesia with carprofen. A sham operation was carried out in the opposite leg as a control.
Mice were randomised into Vehicle or Test groups, with all animals weighed to ensure a similar mean weight in each group. ADC-141, a USP19 inhibitory compound at 75 mg/kg or Vehicle was administered IP twice daily starting from the evening post-operation.
Mice were sacrificed 14 days later. Fat pads, liver, gastrocnemius and tibialis anterior muscles were harvested. Tissue mass were measured in both groups.

[5] = tested on: diet-induced obese (DIO) mouse; experiment: Diet-induced obesity (DIO) mouse model with OGTT; format: in vivo, Male C57BL6/J mice; conditions: 5 or 25 mg/kg i.p. BID
Procedure: To assess obesity and insulin resistance, a diet-induced obesity mouse model was used.
Male C57BL6/J mice were continuously provided with high-fat diet (D12451, 45% kcal as fat; Research Diets, New Jersey, USA) and filtered tap water ad libitum for the duration of the study. From day 0, mice were administered vehicle i.p. BID, USP19 inhibitor (ADC-141) i.p. BID at 5 mg/kg or 25 mg/kg, or positive control liraglutide 0.1 mg/kg s.c. BID.
Body weight was measured daily. On Day 13, body composition was be assessed by DEXA. On Day 15, fasting glucose and insulin levels were measured before and during an oral glucose tolerance test (OGTT) to assess improvements in glucose control. The OGTT was performed following an overnight fast. […] An OGTT was performed the following morning (approx. 16 h post fast). Mice were dosed with vehicle or test compound (starting at 08.45) to a timed schedule 30 minutes prior to the administration of the glucose challenge (2.0 g/kg po). Blood samples were taken immediately prior to dosing (B1), immediately prior to glucose administration (B2) and 15, 30, 60 and 120 minutes after glucose administration.

In vivo mouse PK = conditions: C57BL/6N mice, IV 1 mg/kg
[6] = Kinetic solubility (KSol); format: physicochemical

Q: For O=C(N1CC[C@@H](Cn2cnc(-c3ccccc3)cc2=O)C2(CCCC2)C1)N1CCNC[C@H]1c1ccccc1, which IC50 (USP19 [1]) is on record?
A: 1000 nM

Q: What about the Papp A→B at 2 h [2] of the same compound?
A: 1 ×10⁻⁶ cm/s

Q: For O=C(N1CC[C@@H](Cn2ccc(-c3ccccc3)cc2=O)C2(CCCC2)C1)N1CCNC[C@H]1c1ccccc1, which solubility thermodynamic at 64 h [3] is on record?
A: 1 µM

Q: What about the IC50 (USP19 [1]) of the same compound?
A: 3000 nM

Q: And the Papp A→B at 2 h [2]?
A: 1 ×10⁻⁶ cm/s

Q: Which USP19 inhibitory activity (Full-length USP19) does the source give for C[C@H](CC1CCCCC1)C(=O)N1CC[C@@](O)(Cn2cc(C(=O)N3CCNCC3)c(-c3ccccc3)cc2=O)C2(CCCC2)C1 [ADC-141, 1-(((S)-7-((R)-3-cyclohexyl-2-methylpropanoyl)-10-hydroxy-7-azaspiro[4.5]decan-10-yl)methyl)-4-phenyl-5-(piperazine-1-carbonyl)pyridin-2(1H)-one] here?
A: shown to have USP19 inhibitory activity

Q: What about the cell permeability (USP19 [4]) of the same compound?
A: good cell permeability

Q: What about the “EC50 determined by densitometry” value (USP19 [4]; 2 hrs treatment) of the same compound?
A: low nanomolar

Q: What about the liver mass (male C57bl/6 mice; 2 weeks, vs vehicle) of the same compound?
A: increase in liver mass

Q: And the “mass of the epididymal fat pad” value (male C57bl/6 mice; 2 weeks, vs vehicle)?
A: significantly smaller fat pads

Q: What about the “muscle wasting in the gastrocnemius muscle” value (male C57bl/6 mice; 14 days, trend did not reach significance) of the same compound?
A: reduced

Q: And the “loss of muscle mass in the tibialis anterior muscle” value (male C57bl/6 mice; 14 days, vs vehicle)?
A: significantly lower loss of muscle mass

Q: What about the fat mass ([5]; DEXA Day 13) of the same compound?
A: reduction in fat mass

Q: What about the lean body mass ([5]; DEXA Day 13) of the same compound?
A: preserved

Q: What about the “plasma glucose in OGTT” value ([5]; Day 15) of the same compound?
A: decreased plasma glucose

Q: And the “plasma insulin in OGTT” value ([5]; Day 15)?
A: decreased plasma insulin

Q: And the OGTT response ([5]; Day 15, glucose 2.0 g/kg po)?
A: dose-dependent improvement in OGTT response

Q: What about the “overall body weight gain” value ([5]; high-fat diet) of the same compound?
A: reduction in overall body weight gain

Q: What about the cumulative food intake ([5]; vs vehicle control) of the same compound?
A: reduction in cumulative food intake

Q: With N[C@@H]1CCN(C(=O)N2CC[C@@](O)(Cn3cnc(-c4ccccc4)cc3=O)C3(CCCC3)C2)[C@H](c2ccccc2)C1 [F 11 9 N W032, reference compound] as the compound, how does the solubility thermodynamic at 64 h [3] read?
A: 1 µM

Q: What about the clearance (In vivo mouse PK) of the same compound?
A: 3 mL/min/kg

Q: And the half-life (In vivo mouse PK; read-out: IV t1/2 (converted))?
A: 2 h

Q: For C[C@H](CC(F)(F)F)C(=O)N1CC[C@@](O)(Cn2cnc(-c3ccccc3)cc2=O)C2(CCCC2)C1 [F 11 9 N W 11], which KSol [6] is on record?
A: 1 µM
